Results on 25 compounds are retold here after patent US10315996B2, “ROR gamma (RORγ) modulators” (LEAD PHARMA HOLDING B.V., priority 2015, dated 2019).

The first assay relates to IL-17A production in anti-CD3/anti-CD28 stimulated peripheral blood mononuclear cells (PBMCs). Kind of assay: Peripheral blood mononuclear cell (PBMC) IL-17 assay. To be noted: Homo sapiens, 120 h, inhibition of IL-17A production, PBMCs isolated from human blood, 5 days incubation, IL-17 ELISA, read-out: mean pIC50 (converted). The format is cell-based. The method, then:
PBMC IL-17 Assay Description
This assay is designed to measure the levels of IL-17A secreted from anti-CD3/anti-CD28 stimulated PBMCs with the aim of measuring RORγ mediated inhibition of IL-17A production.
The assay medium consists of 90% RPMI 1640 (Lonza), 10% heat inactivated fetal bovin serum (FBS, Lonza) and 100 U/mL penicillin/streptomycin solution.
Anti-CD3 antibody (BD Pharmingen) was diluted to 10 μg/ml in PBS (Lonza). 30 μL of 10 μg/ml anti-CD3 solution was added to the inner 60 wells, excluding any negative control wells, of a 96-well cell culture treated U-bottom plate (Greiner). Plates were incubated overnight (16-24 hours) at 37° C. and 5% CO2.
Peripheral blood mononuclear cells were separated from buffy coats (Sanquin) using Ficoll-Paque PREMIUM separation medium (GE Healthcare Life Sciences) according to manufacturer's protocol and re-suspended in assay medium at 37° C.
Test compounds were diluted, starting from a 10 mM dimethylsulfoxide (DMSO) stock solution, to serial dilutions in DMSO at 200× the final test concentration. Subsequently, these solutions were diluted in two dilution steps in assay medium to 10× the final test concentration. The DMSO concentration of the 10× test compound solution was 5%.
Anti-CD28 antibody (BD Pharmingen) was diluted to 20 μg/mL in PBS. The PBMCs were diluted to a concentration of 2.5×10^6 cells/mL in assay medium at 37° C.
For compound screening, the anti-CD3 coated plates were washed three times with PBS, the wells were subsequently aspirated using vacuum. To each screening well 80 μL of the PBMC suspension, 10 μL of the anti-CD28 solution and 10 μL of the 10× test compound solution was added, resulting in the final test concentration with 0.5% DMSO. All outer wells were filled with assay medium to prevent evaporation. Plates were incubated for 5 days at 37° C. and 5% CO2.
After incubation the plates were spun down at 1500 rpm for 4 minutes and the supernatant was collected. Subsequently, the IL-17A levels in the supernatants was determined using an IL-17 ELISA kit (human IL-17 DuoSet, R&D systems) according to manufacturer's protocol.
The half maximum inhibitory concentration ([…]) values for the test compounds were calculated from the IL-17A signal using GraphPad Prism software (GraphPad Software).
In the case of `CCCN(CC1CC1)C(=O)c1ccc(NC(=O)Cc2ccc(S(=O)(=O)CC3CC3)cc2)cc1` [Example 9, 4-[2-(4-cyclopropylmethanesulfonylphenyl)acetamido]-N-(cyclopropylmethyl)-N-propylbenzamide], the IC50 was at most 1000 nM.

For `CCN(C(=O)c1ccc(NC(=O)Cc2ccc(S(=O)(=O)NC3CC3)cc2)cc1)c1ccc(C)cc1` [Example 45, 4-{2-[4-(cyclopropylsulfamoyl)phenyl]acetamido}-N-ethyl-N-(4-methylphenyl) benzamide], the IC50 is at most 1000 nM.

In the case of `CCN(C(=O)c1ccc(NC(=O)Cc2ccc(S(=O)(=O)CC3CC3)cc2)cc1)c1ccon1` [Example 103, 4-[2-(4-cyclopropylmethanesulfonylphenyl)acetamido]-N-ethyl-N-(1,2-oxazol-3-yl)benzamide], the IC50 is at most 1000 nM.

`C[C@H](NC(=O)c1ccc(NC(=O)Cc2ccc(S(=O)(=O)CC3CC3)cc2)cc1)c1ccccc1F` [Example 71, 4-[2-(4-cyclopropylmethanesulfonylphenyl)acetamido]-N-[(1S)-1-(2-fluorophenyl)ethyl]benzamide]: the IC50 was at most 1000 nM.

With `CC(C)(NC(=O)c1ccc(NC(=O)Cc2ccc(S(=O)(=O)CC3CC3)cc2)cc1)c1ccccc1` [Example 6, 4-[2-(4-cyclopropylmethanesulfonylphenyl)acetamido]-N-(2-phenylpropan-2-yl)benzamide], the IC50 is at most 1000 nM.

For a further assay, the target named is T1, RORγ (Homo sapiens, UniProt P51449).
T1 construct: expressed in transfected cells; host or cells: 293FT cells (Invitrogen), expression vector pFN26A (Promega)
T1 sequence (P51449 269-508 limits assumed): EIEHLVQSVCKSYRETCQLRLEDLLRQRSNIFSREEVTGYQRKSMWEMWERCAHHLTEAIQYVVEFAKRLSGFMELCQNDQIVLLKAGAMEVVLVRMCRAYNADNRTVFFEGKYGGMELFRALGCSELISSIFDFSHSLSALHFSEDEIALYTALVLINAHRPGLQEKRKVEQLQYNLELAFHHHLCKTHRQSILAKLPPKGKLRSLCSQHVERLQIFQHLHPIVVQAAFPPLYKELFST
The assay is described as follows: RORγ GAL4 reporter gene assay. The format is cell-based. Conditions: inhibition of RORγ activity, GAL4-RORγ-LBD luciferase reporter in 293FT cells, overnight incubation; read-out: mean pIC50 (converted). Summed up: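 293FT cells were transiently co-transfected with GAL4-DBD–RORγ-LBD (or GAL4-VP16 control) and a 9×UAS luc2P reporter, then plated at 60,000 cells/well. Compound was added at final 0.2% DMSO for 16-24 h at 37 °C, and inhibition was measured by firefly luciferase luminescence.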
For the compound `CCCN(CC1CC1)C(=O)c1ccc(NC(=O)Cc2ccc(S(=O)(=O)CC3CC3)cc2)cc1` [Example 9, 4-[2-(4-cyclopropylmethanesulfonylphenyl)acetamido]-N-(cyclopropylmethyl)-N-propylbenzamide], the IC50 is at most 100 nM.

Take `CCN(C(=O)c1ccc(NC(=O)Cc2ccc(S(=O)(=O)NC3CC3)cc2)cc1)c1ccc(C)cc1` [Example 45, 4-{2-[4-(cyclopropylsulfamoyl)phenyl]acetamido}-N-ethyl-N-(4-methylphenyl) benzamide]: the IC50 is at most 10 nM.

Consider `CCN(C(=O)c1ccc(NC(=O)Cc2ccc(S(=O)(=O)CC3CC3)cc2)cc1)c1ccon1` [Example 103, 4-[2-(4-cyclopropylmethanesulfonylphenyl)acetamido]-N-ethyl-N-(1,2-oxazol-3-yl)benzamide], for which the IC50 was at most 10 nM.

Turning to `CC(C)(C1CCCO1)N(C(=O)c1ccc(NC(=O)Cc2ccc(S(=O)(=O)CC3CC3)nc2)cc1)c1ccccc1` (stereo not drawn) [Example 160, 4-[2-(6-cyclopropylmethanesulfonylpyridin-3-yl)acetamido]-N-[2-(oxolan-2-yl)propan-2-yl]-N-phenylbenzamide], the IC50 is at most 100 nM.

As for `O=C(Cc1ccc(S(=O)(=O)CC2CC2)cc1)Nc1ccc(C(=O)Nc2ccccc2OC(F)(F)F)cc1` [Example 74, 4-[2-(4-cyclopropylmethanesulfonylphenyl)acetamido]-N-[2-(trifluoromethoxy)phenyl]benzamide], the IC50 was at most 100 nM.

For `CCN(C(=O)c1ccc(NC(=O)Cc2ccc(S(=O)(=O)CC3CC3)cc2)cc1)c1nc(C)c(C)s1` [Example 64, 4-[2-(4-cyclopropylmethanesulfonylphenyl)acetamido]-N-(4-methyl-5-methyl-1,3-thiazol-2-yl)-N-ethylbenzamide], the IC50 was at most 10 nM.

For `O=C(Cc1ccc(S(=O)(=O)CC2CC2)cc1)Nc1ccc(C(=O)N(c2ccccc2)C2CC(F)(F)C2)cc1` [Example 144, 4-[2-(4-cyclopropylmethanesulfonylphenyl)acetamido]-N-(3,3-difluorocyclobutyl)-N-phenylbenzamide], the IC50 is at most 10 nM.

For the compound `O=C(Cc1ccc(S(=O)(=O)CC2CC2)cc1)Nc1ccc(C(=O)Nc2c(Cl)cccc2Cl)cc1` [Example 147, 4-[2-(4-cyclopropylmethanesulfonylphenyl)acetamido]-N-(2,6-dichlorophenyl)benzamide], the IC50 was at most 1000 nM.

For `CN(C(=O)c1ccc(NC(=O)Cc2ccc(S(=O)(=O)CC3CC3)cc2)cc1)C(C)(C)C` [Example 26, N-tert-butyl-4-[2-(4-cyclopropylmethanesulfonylphenyl)acetamido]-N-methylbenzamide], the IC50 was at most 1000 nM.

For `Cc1ccccc1N(C)C(=O)c1ccc(NC(=O)Cc2ccc(S(=O)(=O)CC3CC3)cc2)cc1F` [Example 116, 4-[2-(4-cyclopropylmethanesulfonylphenyl)acetamido]-2-fluoro-N-methyl-N-(2-methylphenyl)benzamide], the IC50 was at most 100 nM.

On to `CCCN(C(=O)c1ccc(NC(=O)Cc2ccc(S(=O)(=O)NC3CC3)cc2)cc1)c1cc(C)nn1C` [Example 92, 4-{2-[4-(cyclopropylsuIfamoyl)phenyl]acetamido}-N-(1,3-dimethyl-1H-pyrazol-5-yl)-N-propylbenzamide], for which the IC50 was at most 10 nM.

As for `CCCN(C(=O)c1ccc(NC(=O)Cc2ccc(S(=O)(=O)NC3CC3)cc2)cc1)c1ccccc1` [Example 22, 4-{2-[4-(cyclopropylsulfamoyl)phenyl]acetamido}-N-phenyl-N-propylbenzamide], the IC50 was at most 100 nM.

On to `Cc1cc(N(C)C(=O)c2ccc(NC(=O)Cc3ccc(S(=O)(=O)NC4CC4)cc3)cc2)no1` [Example 91, 4-{2-[4-(cyclopropylsulfamoyl)phenyl]acetamido}-N-methyl-N-(5-methyl-1,2-oxazol-3-yl)benzamide], for which the IC50 was at most 1000 nM.

With `COC(=O)C(C)(C)N(C(=O)c1ccc(NC(=O)Cc2ccc(S(=O)(=O)CC3CC3)cc2)cc1)c1ccccc1` [Example 145, methyl 2-(1-{4-[2-(4-cyclopropylmethanesulfonylphenyl)acetamido]phenyl}-N-phenylformamido)-2-methylpropanoate], the IC50 was at most 10 nM.

Regarding `COc1ccccc1[C@H](C)NC(=O)c1ccc(NC(=O)Cc2ccc(S(=O)(=O)CC3CC3)cc2)cc1` [Example 70, 4-[2-(4-cyclopropylmethanesulfonylphenyl)acetamido]-N-[(1S)-1-(2-methoxyphenyl)ethyl]benzamide], the IC50 was at most 1000 nM.

For `C[C@H](NC(=O)c1ccc(NC(=O)Cc2ccc(S(=O)(=O)CC3CC3)cc2)cc1)c1ccccc1F` [Example 71, 4-[2-(4-cyclopropylmethanesulfonylphenyl)acetamido]-N-[(1S)-1-(2-fluorophenyl)ethyl]benzamide], the IC50 was at most 100 nM.

As for `CCN(Cc1cc(C)on1)C(=O)c1ccc(NC(=O)Cc2ccc(S(=O)(=O)CC3CC3)cc2)cc1` [Example 56, 4-[2-(4-cyclopropylmethanesulfonylphenyl)acetamido]-N-ethyl-N-[(5-methyl-1,2-oxazol-3-yl)methyl]benzamide], the IC50 is at most 100 nM.

Turning to `CN1CCN(C(=O)c2ccc(NC(=O)Cc3ccc(S(=O)(=O)CC4CC4)cc3)cc2)C(c2ccccc2)C1` (stereo not drawn) [Example 57, 2-(4-cyclopropylmethanesulfonylphenyl)-N-[4-(4-methyl-2-phenylpiperazine-1-carbonyl)phenyl]acetamide], the IC50 was at most 100 nM.

For `CCN(C(=O)c1ccc(NC(=O)Cc2ccc(S(=O)(=O)NC3CC3)cc2)cc1)c1cccnc1` [Example 50, 4-{2-[4-(cyclopropylsulfamoyl)phenyl]acetamido}-N-ethyl-N-(pyridin-3-yl)benzamide], the IC50 is at most 1000 nM.

For `CCCN(C(=O)c1ccc(NC(=O)Cc2ccc(S(=O)(=O)CC3CC3)cc2)cc1)c1cccnc1` [Example 20, 4-[2-(4-cyclopropylmethanesulfonylphenyl)acetamido]-N-propyl-N-(pyridin-3-yl)benzamide], the IC50 was at most 10 nM.

As for `O=C(Cc1ccc(S(=O)(=O)CC2CC2)cc1)Nc1ccc(C(=O)N(CC(F)(F)F)c2ccccc2)cc1` [Example 104, 4-[2-(4-cyclopropylmethanesulfonylphenyl)acetamido]-N-phenyl-N-(2,2,2-trifluoroethyl)benzamide], the IC50 was at most 10 nM.

Take `CCN(C(=O)c1ccc(NC(=O)Cc2ccc(S(=O)(=O)NC3CC3)cc2)nc1)c1ccccc1` [Example 54, 6-{2-[4-(cyclopropylsulfamoyl)phenyl]acetamido}-N-ethyl-N-phenylpyridine-3-carboxamide]: the IC50 was at most 1000 nM.

In the case of `O=C(Cc1ccc(S(=O)(=O)CC2CC2)nc1)Nc1ccc(C(=O)N(CC(F)(F)F)c2ccccc2)cc1` [Example 155, 4-[2-(6-cyclopropylmethanesulfonylpyridin-3-yl)acetamido]-N-phenyl-N-(2,2,2-trifluoroethyl)benzamide], the IC50 is at most 10 nM.

Consider `Cc1ccccc1N(C)C(=O)c1ccc(NC(=O)Cc2ccc(S(=O)(=O)CC3CC3)cc2)cc1Cl` [Example 117, 2-chloro-4-[2-(4-cyclopropylmethanesulfonylphenyl)acetamido]-N-methyl-N-(2-methylphenyl)benzamide], for which the IC50 is at most 10 nM.

With `CC(C)(NC(=O)c1ccc(NC(=O)Cc2ccc(S(=O)(=O)CC3CC3)cc2)cc1)c1ccccc1` [Example 6, 4-[2-(4-cyclopropylmethanesulfonylphenyl)acetamido]-N-(2-phenylpropan-2-yl)benzamide], the IC50 is at most 100 nM.
